Laboratory results as given in ChEMBL document CHEMBL1201862, “PubChem BioAssay data set” (2004).
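96-well plates; 48 h exposure; 5 concentrations. Endpoints by linear interpolation between flanking doses. Not reached: highest tested concentration assigned. At the GI50, growth is halved.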 Activity calls are given as the source filed them. Cut-off read from the data, not from the text of the source: active = GI50 up to about 1.1 µM and inactive = higher.

Tests used:
Assay in all cases: DTP human tumour cell line panel, 48 h
[1] = tested on: DMS-114
[2] = tested on: OVCAR-3
[3] = tested on: HL-60
[4] = tested on: UACC-62
[5] = tested on: HOP-62
[6] = tested on: HCT-116
[7] = tested on: Malme-3M
[8] = tested on: NCI-H23
[9] = tested on: RXF 393
[10] = tested on: U-251
[11] = tested on: SNB-75
[12] = tested on: HT-29
[13] = tested on: MOLT-4
[14] = tested on: ACHN
[15] = tested on: LOX IMVI
[16] = tested on: RPMI-8226

Measured: GI50

NC1C2(CCCCCC2)NC(=O)C12CCCCCC2 (stereo unspecified)
inactive: [1] > 100 µM | [2] > 100 µM | [3] > 100 µM | [4] > 100 µM | [5] > 100 µM | [6] > 100 µM | [7] > 100 µM | [8] > 100 µM | [9] > 100 µM | [10] > 100 µM | [11] > 100 µM | [12] > 100 µM | [13] > 100 µM | [14] > 100 µM | [15] > 100 µM

COC(=O)CCC1=NOC(CC2CC(CCC(=O)OC)=NO2)C1 (stereo unspecified)
inactive: [1] > 100 µM | [2] > 100 µM | [3] > 100 µM | [4] > 100 µM | [5] > 100 µM | [6] > 100 µM | [7] > 100 µM | [16] > 100 µM | [8] > 100 µM | [9] > 100 µM | [10] > 100 µM | [11] > 100 µM | [12] > 100 µM | [13] > 100 µM | [15] > 100 µM

O=C(Cc1ccccc1)NN1C(=O)C(Cl)C1c1ccccc1O (stereo unspecified)
inactive: [1] 4.46 µM | [2] 2.64 µM | [3] 3.21 µM | [4] 19.5 µM | [5] 12.6 µM | [6] 5.56 µM | [7] 19.5 µM | [16] 9.84 µM | [8] 20.4 µM | [9] 36 µM | [10] 12.8 µM | [11] 34.8 µM | [12] 8.05 µM | [13] 3.22 µM | [14] 6.98 µM | [15] 12.1 µM

O=C(Cc1nc(-c2ccccc2)cc(=O)n1-c1ccccc1Cl)c1ccncc1
inactive: [1] > 100 µM | [2] > 100 µM | [3] 9.1 µM | [4] > 100 µM | [5] > 100 µM | [6] > 100 µM | [7] > 100 µM | [8] > 100 µM | [9] > 100 µM | [10] > 100 µM | [11] 25.2 µM | [12] > 100 µM | [14] > 100 µM | [15] > 100 µM

O=C1NC(=O)c2c1n(Cc1ccccc1)c(=O)n2Cc1ccccc1
inactive: [1] > 100 µM | [2] > 100 µM | [3] 87.7 µM | [4] 84.3 µM | [5] > 100 µM | [6] > 100 µM | [7] > 100 µM | [16] 53.2 µM | [8] > 100 µM | [9] > 100 µM | [10] > 100 µM | [11] > 100 µM | [12] > 100 µM | [13] > 100 µM | [14] > 100 µM | [15] > 100 µM

Cc1ccc(S(=O)(=O)Nc2cccc(C)c2C)cc1
inactive: [1] 28.8 µM | [2] 34 µM | [3] 32.2 µM | [4] 66.1 µM | [5] 86.3 µM | [6] 49.1 µM | [7] 96.8 µM | [16] > 100 µM | [8] 28.1 µM | [9] 19 µM | [10] 28.4 µM | [11] 22.5 µM | [12] 74.1 µM | [13] 45.5 µM | [15] 62.5 µM

COC(=O)c1c(O)ccc(O)c1C(C(C)=O)C(C)=O
inactive: [1] > 100 µM | [2] > 100 µM | [3] > 100 µM | [4] 96.6 µM | [5] > 100 µM | [6] > 100 µM | [7] > 100 µM | [16] > 100 µM | [8] > 100 µM | [9] > 100 µM | [10] > 100 µM | [11] > 100 µM | [12] > 100 µM | [13] > 100 µM | [15] > 100 µM

CC1=C(C(=O)Nc2ccccc2C)C(c2ccccc2C)C(C(=O)Nc2ccccc2C)=C(C)N1
inactive: [1] 26.6 µM | [2] 16.6 µM | [3] 17 µM | [5] 25.2 µM | [6] 20.4 µM | [7] 18.2 µM | [16] 24 µM | [8] 21.5 µM | [9] 12.3 µM | [10] 19.5 µM | [11] 22.4 µM | [12] 20.3 µM | [13] > 10 µM | [14] 15.7 µM | [15] 15 µM

CCOC(=O)c1[nH]c(CN(C)Cc2[nH]c(C(=O)OCC)c(C)c2C(=O)OCc2ccccc2)c(C(=O)OCc2ccccc2)c1C
inactive: [1] 12.7 µM | [2] 10.4 µM | [3] 3.96 µM | [4] 20.4 µM | [5] 13 µM | [6] 7 µM | [7] 40.3 µM | [8] 12.3 µM | [9] 3.87 µM | [10] 12.1 µM | [11] 3.3 µM | [12] 2.77 µM | [13] > 100 µM | [14] 18.4 µM | [15] 4.75 µM
